The record followed here is patent US20150044136A1, “Ophthalmological treatment for michobial infections” (priority 2013, published 2015).

The subject of this series is L929 cells. The series can be described thus: Cytotoxicity evaluation, agar overlay, ASTM F895-84 / ISO 10993-5. Format: cell-based. On the set-up: key to Zone Description Following 48 Hour Incubation (size of zone of lysis): 0: No detectable zone around or under specimen; 1: Zone limited to area under specimen; 2: Zone extends less than 0.5 cm beyond specimen; 3: Zone extends 0.5 to 1.0 cm beyond specimen; 4: Zone extends greater than 1.0 cm beyond specimen but does not involve entire dish; 5: Zone involves entire dish. The conditions noted are these: L929 monolayer, replicate wells. The procedure: ASTM F895-84 Test Method was Utilized.
The Sample was analyzed as described in ASTM F895-84 and ISO 10993-5. Monolayers of L929 cells were grown in six 150 mm cell culture plates (Corning, USA). Following 24 hours to cell passage, the plates were over-layed with agar supplemented dMEM/FBS media as described by the ASTM method. One hundred milligrams of the provided samples was added to the center of four of the over-layed wells. One well was left undisturbed as this served as negative control. An additional well was inoculated with a 2 cm^2 piece of latex rubber. The cells were then incubated in 5% carbon dioxide at 36.5° C.±1 for 24 hours. The plates and cells were evaluated macro and microscopically for signs of malformation, degeneration, sloughing, or lysis of the cells within the zone directly beneath and surrounding the discs. Cells were then re-incubated for an additional 24 hours at the conditions described above and evaluated again. The size of the zone surrounding the inoculated area was evaluated for signs of cell growth inhibition and/cell lysis.
Table 3 contains the numerical values describing the size of zone of lysis surrounding the inoculums as per the ASTM standards. Table 4 contains the relative numerical value describing the number of cells affected within the zone of inhibition or toxicity. Each sample observed is assigned a numerical value based on cellular degradation and/or cell death.
Briefly, number 0=unchanged/no evident cytotoxicity; 5=complete monolayer destruction and severe cytotoxicity. The ASTM and ISO 10993-5 consider a scoring of 3 or higher as toxic.

In the case of `Oc1ccccc1` [(+) Control, Phenol], where the note is “24 Hour Incubation”, the “Cell Description Following 24 Hour Incubation (condition of cells within the zone of lysis)” value is reported as 5 (Greater than 80% of zone affected of zone affected) and the “Zone Description Following 24 Hour Incubation (size of zone of lysis)” value is 4 (Zone extends greater than 1.0 cm beyond specimen but does not involve entire dish). In addition, for the setting “48 Hour Incubation”, the “Cell Description Following 48 Hour Incubation (condition of cells within the zone of lysis)” value is 5 (Greater than 80% of zone affected of zone affected) and the “Zone Description Following 48 Hour Incubation (size of zone of lysis)” value stood at 5.
